{
  "source": "patent US5753681A",
  "about": "“Treatment and prophylaxis of pancreatitis” (Sankyo Company, Limited, priority 1996, dated 1998)",
  "key": {"[1]": {"test": "Histopathology of pancreatic tissue of Example 6: total cross-sectional area and cicatrized area", "format": "in vivo, male WBN/Kob rats", "details": "9.5 months; for Cicatrized area in the exocrine pancreatic tissue: **p < 0.01", "experimental": "The measurement of the cicatrized area may also be carried out by conventional procedures. More specifically, male WBN/Kob rats are used as models of spontaneous chronic pancreatitis and are fed with a powdered feed admixed with a test compound. The pancreas of each animal is then totally enucleated. Its weight is measured and also the cicatrized area is measured relative to the total cross-sectional area of the pancreas tissue sliced by an image analyser.\nIn order to evaluate the results of Example 2 histopathologically, each pancreas used for weight measurement in Example 2 was fixed in 10% neutral formalin. It was then divided into a spleen side half and a duodenum side half, and each half was sliced at 3 mm intervals to provide cross-sectional tissue pieces. All of these tissue pieces were subjected to paraffin sectioning by conventional procedures and then to hematoxylin-eosin staining and Masson's trichrome staining to prepare two tissue preparations, which were used for histopathological examination. The total cross-sectional area of the pancreatic tissue piece on each preparation was measured using an image analyser (SPICCAII, manufactured by Olympus Optical Co., Ltd.).\nIn addition, the surface area of the zone which had undergone degeneration and necrosis and in which the exocrine pancreatic tissue was replaced with connective tissue (the cicatrized area) was measured using an image analyser.\nThe test animals were male WBN/Kob rats. Each group of test animals contained 6 animals, and the animals were used for the experiment when they had reached 12 weeks old. The animals were fed with powdered feed F2 mixed with 0.2% or 0.05% of troglitazone for 9.5 months. These groups are hereinafter referred to as \"the 0.2% group\" and \"the 0.05% group\", respectively. The average doses of the compound during this period were 120 mg/kg/day and 30 mg/kg/day, respectively. Meanwhile, another six rats (control group) were fed with the powdered feed F2 only. After the rats had been fed with the feeds for 9.5 months, each rat was decapitated and its blood was collected. The blood serum was separated and the plasma lipase level was measured using an autoanalyser (type 7250, manufactured by Hitachi Ltd.).\nIn order to evaluate the results of Example 6 histopathologically, the total cross-sectional area and cicatrized area of each pancreas whose weight was measured in Example 6 was measured by the procedure described in Example 4."}, "Acute toxicity": {"test": "Acute toxicity", "format": "in vivo, ddY mice (male)", "details": "single oral dose of 300 mg/kg, observed for 5 days, three mice", "experimental": "Acute toxicity was assayed by conventional procedures. […] At the end of this time, the animals were all alive. When the acute toxicities of Compounds No. 2, 3, 4 and 10 were measured in the same manner, the mice were all alive after an oral dose of 300 mg/kg or more."}},
  "data": [
    {"smiles": "Cc1c(C)c2c(c(C)c1O)CCC(C)(COc1ccc(CC3SC(=O)NC3=O)cc1)O2", "note": "(stereo not drawn) [troglitazone, 5-[4-(6-Hydroxy-2,5,7,8-tetramethylchroman-2-ylmethoxy)benzyl]thiazolidine-2,4-dione]", "values": [
      {"measurement": "Cicatrized area in the exocrine pancreatic tissue", "setting": "[1]; duodenum side, 0.05% group, control 2.48 ± 0.39", "result": "1.03 ± 0.16", "unit": "mm^2"},
      {"measurement": "Total cross-sectional area of pancreatic tissue piece", "setting": "[1]; duodenum side, 0.05% group, control 106.1 ± 6.6", "result": "110.6 ± 7.7", "unit": "mm^2"},
      {"measurement": "Cicatrized area in the exocrine pancreatic tissue", "setting": "[1]; duodenum side, 0.2% group, control 2.48 ± 0.39", "result": "0.65 ± 0.06", "unit": "mm^2"},
      {"measurement": "Total cross-sectional area of pancreatic tissue piece", "setting": "[1]; duodenum side, 0.2% group, control 106.1 ± 6.6", "result": "122.3 ± 7.4", "unit": "mm^2"},
      {"measurement": "Cicatrized area in the exocrine pancreatic tissue", "setting": "[1]; spleen side pancreatic half, 0.05% group, control 4.96 ± 0.82", "result": "1.68 ± 0.12", "unit": "mm^2"},
      {"measurement": "Total cross-sectional area of pancreatic tissue piece", "setting": "[1]; spleen side pancreatic half, 0.05% group, control 103.0 ± 16.9", "result": "96.2 ± 8.2", "unit": "mm^2"},
      {"measurement": "Cicatrized area in the exocrine pancreatic tissue", "setting": "[1]; spleen side pancreatic half, 0.2% group, control 4.96 ± 0.82", "result": "1.23 ± 0.19", "unit": "mm^2"},
      {"measurement": "Total cross-sectional area of pancreatic tissue piece", "setting": "[1]; spleen side pancreatic half, 0.2% group, control 103.0 ± 16.9, *p < 0.05", "result": "141.9 ± 10.6", "unit": "mm^2"},
      {"measurement": "Survival (acute toxicity)", "setting": "Acute toxicity", "result": "all alive"}
    ]}
  ]
}
